# Columns and labels:
# Oncorhynchus mykiss = details: for LC50: acute, duration: 96 hours, mortality
# Tagia sp. = details: for NOEC: chronic/long-term, duration: 56 days, reproduction
# Folsomia candida = details: chronic/long-term; duration: 28 days; mortality
# Neomysis kadiakensis = details: for LC50: acute, mortality
# Bibionidae = details: chronic/long-term; duration: 22 days; other
# Anas platyrhynchos = details: acute; oral; unspecified; mortality
# Oryctolagus sp. = details: developmental; development
# Apis mellifera = details: acute, mortality
Compound,"NOAEL (Rattus norvegicus; subchronic, duration: 90 days, M) [mg/kg-day]","NOAEL (Colinus virginianus; chronic, reproduction) [mg/kg-day]",LC50 (Oncorhynchus mykiss) [µg/mL],NOEC (Tagia sp.) [mg/kg],NOEC (Folsomia candida) [mg/kg],LC50 (Neomysis kadiakensis; duration: 48 hours) [µg/mL],LC50 (Neomysis kadiakensis; duration: 96 hours) [µg/mL],NOEC (Bibionidae) [mg/L],"LD50 (Colinus virginianus; acute, oral, mortality) [mg/kg-day]",LD50 (Anas platyrhynchos) [mg/kg-day],"NOEC (Oncorhynchus mykiss; chronic/long-term, duration: 28 days, growth) [mg/L]","LC50 (Tagia sp.; acute, duration: 14 days, mortality) [mg/kg]",NOAEL (Oryctolagus sp.) [mg/kg-day],LD50 (Apis mellifera; dermal) [µg/piece],"LD50 (Apis mellifera; oral, unspecified) [µg/piece]","LD50 (Rattus norvegicus; acute, mortality) [mg/kg]","NOAEL (Rattus norvegicus; chronic, duration: 2 years, histopathology: nonneoplastic) [mg/kg-day]","NOAEL (Rattus norvegicus; reproduction developmental, organ weight) [mg/kg-day]","NOEC (Neomysis kadiakensis; chronic/long-term, other) [mg/L]"
CS(=O)(=O)c1cc(C(F)(F)F)ccc1C(=O)O [2-Methylsulfonyl-4-trifluoromethylbenzoic acid],769,–,–,–,–,–,–,–,–,–,–,–,–,–,–,–,–,–,–
CS(=O)(=O)c1cc(C(F)(F)F)ccc1C(=O)C(C#N)C(=O)C1CC1 (configuration not stated),–,25,> 15,9,> 100,24,3.7,–,–,–,–,–,–,–,–,–,–,–,–
CS(=O)(=O)c1cc(C(F)(F)F)ccc1C(=O)c1cnoc1C1CC1 [Isoxaflutole],–,–,> 1.7,8.9,–,> 0.077,–,0.1,> 2150,> 2150,0.08,> 500,5,> 100,> 109,> 5000,2,2,0.001

# Source: EPA's ToxValDB 9.5 (doi:10.2903/j.efsa.2016.4416)
